Patent EP4786487A1, “PEPTIDE” (Peptidream Inc, priority 2023, dated 2025)
pIC50: −log10 of the molar value. Starred links: 1 amine or outer side, 2 acyl side, 3 side chain; linkers in the order of their positions; H or OH if unused. Positions of bridges follow the written chain, without caps; N, C: chain ends. Non-standard residues stand in square brackets, D forms with d. Residues, ends and D or L forms follow the SMILES beside them. Phe(3-OCH2COOH) = N[C@@H](Cc1cccc(OCC(=O)O)c1)C(=O)O; Phe(4-COOH) = N[C@@H](Cc1ccc(C(=O)O)cc1)C(=O)O; Gly(N(CH2)3COOH) = O=C(O)CCCNCC(=O)O; X1 = CCCCCCC[C@H](N[*:1])C(=O)[*:2]; NMeF = CN[C@@H](Cc1ccccc1)C(=O)O; NMeA = CN[C@@H](C)C(=O)O

Key:
Type in all cases: cell-based
activin A = target: T1, activin A (Homo sapiens, UniProt P08476); assay: Reporter gene assay for myostatin signaling in HEK-Blue TGF-β Cells, activin A; settings: activin A 3 ng/mL
T1 construct: purchased R&D systems 338-AC-010/CF
T1 sequence (P08476 311-426): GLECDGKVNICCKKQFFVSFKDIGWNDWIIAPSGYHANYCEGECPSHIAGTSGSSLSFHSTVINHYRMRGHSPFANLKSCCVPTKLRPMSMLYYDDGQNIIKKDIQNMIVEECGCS
Experimental: (§1) In this Example, the in vitro activity of the peptide Myostatin_99_v145 (SEQ ID NO: 30) was evaluated using a reporter gene assay for myostatin signaling.
HEK-Blue (trademark) TGF-β Cells (hkb-tgfbv2, InvivoGen) were cultured in DMEM High glucose GlutaMAX (10569010, Thermo) containing 10% FBS (Heat-inactivated FBS QUALIFIED, 10270-106, Gibco), […] Normocin (ant-nr-05, InvivoGen), […] Zeocin (ant-zn-05, InvivoGen), and 50 µg/mL Gentamicin (11980-14, Nacalai Tesque). The cultured HEK-Blue (trademark) TGF-β Cells were suspended in an assay medium containing DMEM High glucose GlutaMAX, 50 µg/mL Gentamicin, and 1% bovine serum albumin (A7030, Sigma). The cells were seeded at 4 × 10^4 cells/well onto a 96-well plate (356461, Corning), namely BioCoat poly-D-lysine multi-well plate, and allowed to stand for 30 min. […]
To each well of a UV-Star µClear 96-well (655801, Greiner), 180 µL of Detection buffer (prepared by diluting, with 17.64 mL of distilled water, 180 µL of QUANTI-Blue buffer and 180 µL of QUANTI-Blue solution) was dispensed. […] The plate was covered and incubated in a CO2 incubator for 3 to 5 hours, and absorbance was measured (Envision 2104, PerkinElmer, 620 nm/bp 40 nm). Based on the absorbance, IC50 values of the peptide were calculated using software (Prism 9, GraphPad).

Myostatin [1] = assay: Reporter gene assay for myostatin signaling in HEK-Blue TGF-β Cells, myostatin
Experimental: as §1
(§2) HEK-Blue (trademark) TGF-β Cells (hkb-tgfbv2, InvivoGen) were cultured in DMEM High glucose GlutaMAX (10569010, Thermo) containing 10% FBS (Heat-inactivated FBS QUALIFIED, 10270-106, Gibco), […] Normocin (ant-nr-05, InvivoGen), […] Zeocin (ant-zn-05, InvivoGen), and 50 µg/mL Gentamicin (11980-14, Nacalai Tesque). The cultured HEK-Blue (trademark) TGF-β Cells were suspended in an assay medium containing DMEM High glucose GlutaMAX, 50 µg/mL Gentamicin, and 1% bovine serum albumin (A7030, Sigma). The cells were seeded at 4 × 10^4 cells/well onto a 96-well plate (356461, Corning), namely BioCoat poly-D-lysine multi-well plate, and allowed to stand for 30 min.
(§3) A 4-fold dilution series of the peptide, namely Myostatin_99_v145 (SEQ ID NO: 30), synthesized according to Example 1, the final concentration of which was from 0.006 nmol/L up to a maximum concentration of 0.1 µmol/L for the myostatin inhibitory activity test, was added to a 96-well U-bottom Non-Binding MicroPlate (650901, Greiner). For the GDF-11 or activin A inhibitory activity test, a 4-fold dilution series, the final concentration of which was from 0.12 nmol/L to a maximum concentration of 2 µmol/L, was added to a 96-well U-bottom Non-Binding MicroPlate (650901, Greiner).
(§4) Subsequently, myostatin (788-G8/CF, R&D systems), GDF-11 (1958-GD-G8/CF, R&D systems), or activin A (338-AC-010/CF, R&D systems) was each added at a final concentration of 3 ng/mL. The plate was sealed with Parafilm, and incubated in a CO2 incubator (37°C, 5% CO2) for 30 min. The samples were added at 50 µL/well to a plate containing HEK-Blue (trademark) TGF-β Cells, and incubated in a CO2 incubator (37°C, 5% CO2) for 24 hours.
(§5) To each well of a UV-Star µClear 96-well (655801, Greiner), 180 µL of Detection buffer (prepared by diluting, with 17.64 mL of distilled water, 180 µL of QUANTI-Blue buffer and 180 µL of QUANTI-Blue solution) was dispensed. Here, 20 µL of the supernatant of the culture medium was transferred to the above Detection buffer and stirred with a shaker for 1 min. The plate was covered and incubated in a CO2 incubator for 3 to 5 hours, and absorbance was measured (Envision 2104, PerkinElmer, 620 nm/bp 40 nm). Based on the absorbance, IC50 values of the peptide were calculated using software (Prism 9, GraphPad).

Myostatin [2] = target: T2, Myostatin (Homo sapiens, UniProt O14793); assay: as above; settings: myostatin 3 ng/mL
T2 construct: active myostatin (also called mature myostatin) is a homodimer consisting of two C-terminal growth factor domains; purchased R&D systems 788-G8/CF
T2 sequence (O14793 267-375): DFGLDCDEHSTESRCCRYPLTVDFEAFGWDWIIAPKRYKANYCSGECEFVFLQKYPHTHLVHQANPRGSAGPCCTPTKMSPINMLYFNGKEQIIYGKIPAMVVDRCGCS
Experimental: as §1, §2, §3, §4, §5

pIC50 (activin A; read-out: IC50 (nmol/L) Activin A): < 4.70 | IC90 (activin A; read-out: IC90 (nmol/L) Activin A): > 20000 nmol/L | pIC50 (Myostatin [2]; read-out: IC50 (nmol/L) Myostatin): 9.64 | IC90 (Myostatin [2]; read-out: IC90 (nmol/L) Myostatin): 0.64 nmol/L
Compound: CCCCCCC[C@@H]1NC(=O)[C@H](Cc2ccccc2)N(C)C(=O)[C@H](CCCNC(=N)N)NC(=O)[C@H](Cc2ccc(C(=O)O)cc2)NC(=O)[C@H](Cc2cccc(OCC(=O)O)c2)NC(=O)[C@H](C)N(C)C(=O)[C@H]([C@@H](C)CC)NC(=O)[C@H](Cc2ccccc2)N(C)C(=O)[C@H](Cc2ccc(O)cc2)NC(=O)[C@H](Cc2c[nH]c3ccccc23)NC(=O)[C@H](C)NC(=O)CN(CCCC(=O)O)C(=O)CSC[C@H](C(=O)O)NC(=O)[C@H](Cc2ccccc2)N(C)C(=O)[C@H](C)N(C)C1=O [Myostatin_99_v145] ({CH2CO}-[Gly(N(CH2)3COOH)]AWY[NMeF]I[NMeA][Phe(3-OCH2COOH)][Phe(4-COOH)]R[NMeF][X1][NMeA][NMeF][dC]-OH; thioether N-15)
Selectivity (GDF11/myostatin) (Myostatin [1]; from IC50): 270 | Selectivity (GDF11/myostatin) (Myostatin [1]; from IC90): 1,088
